Measurements published in EP0311383B1, “Monoclonal antibody to methamphetamine, preparation of the same, assay method and assay kit of methamphetamine” (UBE INDUSTRIES, LTD., priority 1987, dated 1989).
Where two headings read alike, the source gives them in different places.

Assays:
Type in all cases: binding, mouse
[1] = system: monoclonal antibody MA-13 (FERM BP-1495); test: Assay test II: competitive ELISA on immobilised MA-BSA, reactivities of the monoclonal antibody with various compounds
Protocol: (§1) First, in each analytic well of a 96-well U-bottomed ELISA plate was apportioned each 50 µl of an MA-BSA solution (2 µg/ml, dissolved in 0.05 M carbonate buffer of pH 9.8) which is the antigen for analysis prepared in Example 1, and the mixture was left to stand overnight at 4 °C (by such treatment, MA-BSA was adsorbed onto the surface of each analytic well).
(§2) Subsequently, after each analytic well was washed with a washing solution (PBS containing 0.05 % of Tween 20), each apportioned in each analytic well, left to stand at room temperature for 2 hours, these respective analytic wells were washed with the washing solution, and the culture supernatant in each culture well of the above culture plate was apportioned each in 50 µl into these respective analytic wells and left to stand at room temperature for 2 hours (for the negative control, a supernatant obtained by culturing similarly a mixture of mouse spleen lymphocytes and mouse myeloma cells before fusion was employed; on the other hand, for the positive control, the serum of mouse used for cell fusion in the present invention diluted to 100-fold with the washing liquor was used).
(§3) Next, each analytic well in the ELISA plate was washed, and each 50 µl of an alkaline phosphatase labeled antibody solution to mouse immunoglobulin was apportioned into each analytic well and left to stand at room temperature for 1 hour. And, after each analytic well in the ELISA plate was washed, each 100 µl of a sodium p-nitrophenylphosphate 6H₂O solution (1 mg/ml) was apportioned into each analytic well and, after the reaction at room temperature for 30 minutes, absorbance of each well at 405 nm was assayed by means of a spectrophotometer for microplate.
(§4) In order to determine the reaction specificities of the monoclonal antibodies such as MA-7, MA-13 and MA-15, reactivities with compounds different from MA such as AP (amphetamine), EP (ephedrin), ME (methylephedrin), MPA (methoxyphenamine), PT (phentermine), norEp (norephedrin), DBED (N,N′-dibenzylethylenediamine), OH-MA (p-hydroxymethamphetamine), OH-AP (p-hydroxyamphetamine), OH-EP (p-hydr oxyephedrin), OH-norEP (p-hydroxynorephedrin), Mes (mescaline), etc. were investigated according to the same ELISA method as described above in the step (c) (however, the reagent used for assay was made two-fold in amount, and a mixed solution of 50 µl of a solution of a compound diluted at multiple stages with the washing liquor and 50 µl of a monoclonal antibody solution was used in place of the hybridoma culture supernatant).
(§5) The reactivities of these antibodies with MA, AP, EP, ME, MPA, PT, norEp, DBED, OH-MA, OH-AP, OH-EP, OH-norEP and Mes are shown in Table 1 in terms of the reactive ratios relative to MA.

[2] = system: monoclonal antibody MA-15 (FERM BP-1496); test: as above
Protocol: as §1, §2, §3, §4, §5

[3] = system: monoclonal antibody MA-7 (FERM BP-1494); test: as above
Protocol: as §1, §2, §3, §4, §5

[4] = system: "enzyme-labeled antibody" (peroxidase-labeled monoclonal antibody MA-15); test: Reactivity of MA analogous compounds in the competitive enzyme immunoassay with MA bound protein and enzyme-labeled antibody (Example 15)
Protocol: The antibody in the "enzyme-labeled antibody" was obtained as the purified monoclonal antibody as shown in Reference example 2 by use of the MA-15 strain (FERM-P 1496).
First, […] of horseradish peroxidase was dissolved in 1 ml of distilled water and 200 µl of 0.1 M sodium periodate was added, followed by standing at room temperature for 30 minutes. After the enzyme solution was dialyzed at 4 °C overnight against 1 mM acetate buffer (pH 4.5), 100 µl of 0.2 M sodium carbonate buffer (pH 9.5) was added to adjust pH to 9.5. On the other hand, 8 mg of the monoclonal antibody (MA-15) dissolved in PBS was dialyzed at 4 °C overnight against 0.01 M sodium carbonate buffer (pH 9.5). The peroxidase and the monoclonal antibody thus obtained was mixed, left to stand at room temperature for 2 hours and a half, and sodium borohydride was added to the reaction mixture, followed by standing at 4 °C for 2 hours. The peroxidase-labeled monoclonal antibody thus obtained was dialyzed at 4 °C overnight against PBS, and this was diluted to 100-fold with PBS containing 0.01 % sodium ethylmercurithiosalicylate, apportioned each in 0.2 ml into a bottle and stored under lyophilization to provide the "enzyme-labeled antibody" (10 µg/bottle) which is the assay kit of MA. During assay of MA, 0.2 ml of distilled water was added into the bottle to dissolve well the lyophilized powder, and the solution was suitable diluted with PBS before use.
The MA-BSA which is the "MA bound protein" (bound product of MA and BSA, 5 µg/ml) was apportioned each in 100 µl into a 96-well flat-bottomed plate for immunoassay which is the solid phase support (microplate made of polystyrene produced by Nunc Co.), and left to stand under 4 °C overnight to immobilize MA-BSA onto each well. Next, for preventing non-specific adsorption of the "enzyme-labeled antibody" onto the plate, a washing solution containing 10 % calf serum (phosphate buffer of pH 7.4 containing 0.05 % of Tween 20) was placed and left to stand under room temperature for 30 minutes. Next, after washing with the same washing solution, 50 µl of the standard MA solution prepared by using the diluted urine of healthy man (produced by HYLAND DIAGNOSTIC CO.) to 5-fold with the same washing solution [(0 to 150 ng)/50 µl] and 50 µl of the "enzyme-labeled antibody" prepared in Example 1 were added at the same time into each well, followed by mixing and standing under room temperature for 30 minutes. […] Finally, each 50 µl of 2N sulfuric acid was apportioned to stop the enzymatic reaction, and absorbance of the solution after stopping of the reaction at 492 nm was assayed by use of a microplate photometer. […]

[5] = system: "antibody carrier" (monoclonal antibody to MA on polystyrene latex); test: Latex agglutination assay with MA carrier and antibody carrier, time until agglutination is seen with naked eyes; conditions: same as at 0 ppm
Protocol: Each solution was quickly stirred with a stirring stick to carry out the reaction while moving the reaction plate, forward and backward, left and right, at a constant temperature (e.g. room temperature) for a certain period of time (e.g. 1 to 2 minutes), and the agglutination of each set formed by the reaction between the "antibody carrier" and the "MA carrier" is observed. At this time, by observing with comparison between the agglutination in the case of the set by use of the "standard MA solution" and the agglutination in the case of the set by use of the sample to be assayed, the MA content in the sample to be assayed can be known.
A mixture of 100 µl of MA-BSA solution (400 µg/ml) with 100 µl of a polystyrene latex which is the carrier (solid components 4.0 % by weight, particle size 0.8 µm, solvent PBS was shaken at 37 °C for 3 hours to have the MA-BSA carried physically on the polystyrene latex surface to obtain the "MA carrier".
The "MA carrier" prepared in Example 18 and the "antibody carrier " prepared in Example 19 were added dropwise each in 25 µl separately from each other onto the three sheets of reaction plates, and on the same plates were further added each 5 µl of the samples to be assayed with MA concentrations of 0.5 ppm and 1.0 ppm prepared by dilution with urine of healthy man (produced by HYLAND DIAGNOSTIC CO.) separately from each other, followed immediately by mixing of the "MA carrier", the "antibody carrier" and the sample to be assayed with a stirring stick.
In Example 20, samples to be assayed were prepared by use of methylephedrine (ME) in place of MA and the assay was carried out, following otherwise the same procedure.
In Example 20, samples to be assayed were prepared by use of ephedrine (EP) in place of MA and the assay was carried out, following otherwise the same procedure.

[6] = monoclonal antibody MA-13, compound diluted at multiple stages, MA = 1
[7] = monoclonal antibody MA-15, compound diluted at multiple stages, MA = 1
[8] = monoclonal antibody MA-7, compound diluted at multiple stages, MA = 1
[9] = concentration in sample 0.5 ppm
[10] = concentration in sample 1.0 ppm
[11] = enzyme-labeled antibody, according to Example 6, MA = 100

Compound | reactive ratios relative to MA [1, 6] | reactive ratios relative to MA [2, 7] | reactive ratios relative to MA [3, 8] | other results
CC(N)Cc1ccccc1 (centres unmarked) [AP, amphetamine] | – | – | – | reactive ratios relative to MA [1]: 0.0062; reactive ratios relative to MA [2]: 0.019; reactive ratios relative to MA [3]: 0.0051; Reactivity (%) [4]: 1.8%
c1ccc(CNCCNCc2ccccc2)cc1 [DBED, N,N′-dibenzylethylenediamine] | 0.23 | 0.0055 | 0.17 | –
CN[C@@H](C)[C@H](O)c1ccccc1 [EP, ephedrin] | 0.0025 | 0.0012 | 0.0018 | time until particles of polystyrene latex were observed with naked eyes to be agglutinated [5, 9]: ≤ 30 s; time until particles of polystyrene latex were observed with naked eyes to be agglutinated [5, 10]: ≤ 30 s
CN[C@@H](C)Cc1ccccc1 [MA, methamphetamine] | 1 | 1 | 1 | Reactivity (%) [4, 11]: 100%
CC([C@H](O)c1ccccc1)N(C)C (some centres unmarked) [ME, methylephedrin] | 0.028 | 0.016 | 0.022 | Reactivity (%) [4, 11]: 1.2%; time until particles of polystyrene latex were observed with naked eyes to be agglutinated [5, 9]: ≤ 30 s; time until particles of polystyrene latex were observed with naked eyes to be agglutinated [5, 10]: ≤ 30 s
CNC(C)Cc1ccccc1OC (centres unmarked) [MPA, methoxyphenamine] | 0.0037 | 0.0016 | 0.023 | Reactivity (%) [4, 11]: <0.2%
COc1cc(CCN)cc(OC)c1OC [Mes, mescaline] | – | – | – | reactive ratios relative to MA [1]: <0.00001; reactive ratios relative to MA [3]: <0.00001
CC(N)Cc1ccc(O)cc1 (centres unmarked) [OH-AP, p-hydroxyamphetamine] | 0.003 | <0.001 | <0.001 | reactive ratios relative to MA ([2]; monoclonal antibody MA-15, compound diluted at multiple stages, MA = 1, listed as p-hydroxyamphetamine): < 0.001; reactive ratios relative to MA ([3]; monoclonal antibody MA-7, compound diluted at multiple stages, MA = 1, listed as p-hydroxyamphetamine): < 0.001
CNC(C)C(O)c1ccc(O)cc1 (centres unmarked) [OH-EP, p-hydroxyephedrine] | <0.001 | 0.0031 | <0.001 | reactive ratios relative to MA ([1]; monoclonal antibody MA-13, compound diluted at multiple stages, MA = 1, listed as p-hydroxephedrine): < 0.001; reactive ratios relative to MA ([3]; monoclonal antibody MA-7, compound diluted at multiple stages, MA = 1, listed as p-hydroxyephedrine): < 0.001
CNC(C)Cc1ccc(O)cc1 (centres unmarked) [OH-MA, p-hydroxymethamphetamine] | 0.14 | 0.014 | 0.0039 | –
CC(N)C(O)c1ccc(O)cc1 (centres unmarked) [OH-norEP, p-hydroxynorephedrin] | <0.001 | <0.001 | <0.001 | reactive ratios relative to MA ([1]; monoclonal antibody MA-13, compound diluted at multiple stages, MA = 1, listed as p-hydroxynorephedrine): < 0.001; reactive ratios relative to MA ([2]; monoclonal antibody MA-15, compound diluted at multiple stages, MA = 1, listed as p-hydroxynorephedrine): < 0.001; reactive ratios relative to MA ([3]; monoclonal antibody MA-7, compound diluted at multiple stages, MA = 1, listed as p-hydroxynorephedrine): < 0.001
CC(C)(N)Cc1ccccc1 [PT, phentermine] | 0.12 | 0.0039 | 0.042 | –
CC(N)C(O)c1ccccc1 (centres unmarked) [norEP, norephedrin] | <0.001 | <0.001 | <0.001 | reactive ratios relative to MA ([1]; monoclonal antibody MA-13, compound diluted at multiple stages, MA = 1, listed as norephedrine): < 0.001; reactive ratios relative to MA ([2]; monoclonal antibody MA-15, compound diluted at multiple stages, MA = 1, listed as norephedrine): < 0.001; reactive ratios relative to MA ([3]; monoclonal antibody MA-7, compound diluted at multiple stages, MA = 1, listed as norephedrine): < 0.001
